Molecular target: human TLR7 (Homo sapiens (Human), UniProt Q9NYK1)
Assay: Test for evaluating the inhibition of the activation of human TLR7 (SEAP reporter, TLR7/NF-κB/SEAPorter HEK293 cell)
Assay type: cell-based
Conditions: R-848 200 nmol/L; for IC50: SEAP reporter; for inhibitory effect against TLR7 in the test for evaluating inhibition of the activation of TLR7: SEAP activity, result in words
Experimental: As human TLR7 expressing cell line, HEK293 cell line was bought from IMGENEX Corporation (TLR7/NF-ηB/SEAPorter™ HEK293 cell), which is human embryonic kidney cell line and stably expresses full-length human TLR7 gene and secreted alkaline phosphatase (SEAP) reporter gene under the transcriptional control of an NE-ηB response element. The TLR7/NF-ηB/SEAPorter™ HEK293 cell was cultivated with DMEM containing 10% fetal bovine serum (FBS) and 10 μg/mL blasticidin S at 37° C. in the presence of 5% CO2. The TLR7/NF-ηB/SEAPorter™ HEK293 cell was seeded into 96-well microtiter plate at 5×10^4 cell/90 μL/well, and the place was cultivated at 37° C. in a CO2 incubator overnight.
Each compound prepared in the Examples was evaluated by Test 1.

Chain of human TLR7 (Q9NYK1 27-1049): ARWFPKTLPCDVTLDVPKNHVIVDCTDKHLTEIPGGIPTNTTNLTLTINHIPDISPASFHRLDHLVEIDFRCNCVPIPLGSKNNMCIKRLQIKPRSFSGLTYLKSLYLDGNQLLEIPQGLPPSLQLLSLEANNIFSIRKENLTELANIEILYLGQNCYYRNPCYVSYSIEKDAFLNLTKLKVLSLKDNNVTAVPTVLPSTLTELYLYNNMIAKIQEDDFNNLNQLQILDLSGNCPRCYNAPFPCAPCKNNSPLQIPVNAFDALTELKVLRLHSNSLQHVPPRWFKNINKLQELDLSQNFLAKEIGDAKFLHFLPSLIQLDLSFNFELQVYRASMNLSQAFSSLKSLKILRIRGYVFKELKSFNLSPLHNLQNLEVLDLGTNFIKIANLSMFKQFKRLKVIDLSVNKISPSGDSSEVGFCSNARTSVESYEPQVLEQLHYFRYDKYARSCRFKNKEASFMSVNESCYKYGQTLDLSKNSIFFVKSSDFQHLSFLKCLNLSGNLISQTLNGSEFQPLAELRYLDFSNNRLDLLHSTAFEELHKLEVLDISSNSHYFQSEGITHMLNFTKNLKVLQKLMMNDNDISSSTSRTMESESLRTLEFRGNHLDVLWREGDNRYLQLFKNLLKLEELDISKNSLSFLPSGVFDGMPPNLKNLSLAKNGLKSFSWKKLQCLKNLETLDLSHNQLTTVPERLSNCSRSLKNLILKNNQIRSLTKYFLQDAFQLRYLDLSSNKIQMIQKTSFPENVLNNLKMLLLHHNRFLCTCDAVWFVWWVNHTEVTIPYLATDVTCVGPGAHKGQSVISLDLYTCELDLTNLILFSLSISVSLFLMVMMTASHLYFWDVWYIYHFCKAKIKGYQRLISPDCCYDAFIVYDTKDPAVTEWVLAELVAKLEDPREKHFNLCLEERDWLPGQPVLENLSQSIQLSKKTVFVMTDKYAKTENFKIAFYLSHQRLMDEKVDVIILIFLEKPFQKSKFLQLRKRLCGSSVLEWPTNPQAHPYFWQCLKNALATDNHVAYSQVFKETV

Compound	IC50 [nM]	inhibitory effect against TLR7 in the test for evaluating inhibition of the activation of TLR7
COc1nc(C)c2nc(-c3cncc(F)c3)n(Cc3ccc(OC4CCN(C)CC4)cc3F)c2n1 [Example 411, 9-{2-fluoro-4-[(1-methylpiperidin-4-yl)oxy]benzyl}-8-(5-fluoropyridin-3-yl)-2-methoxy-6-methyl-9H-purine]	26	potent inhibitory effect against TLR7
CCOc1nc(C)c2nc(-c3cncc(F)c3)n(Cc3cnc(C4CN5CCC4CC5)c(F)c3)c2n1 (stereo not shown) [Example 383]	83	potent inhibitory effect against TLR7
COc1nc(C)c2nc(-c3cncc(F)c3)n(Cc3ccc(C4CCN(C)C4)cc3F)c2n1 (stereo not shown) [Example 290, 9-[2-fluoro-4-(1-methylpyrrolidin-3-yl)benzyl]-8-(5-fluoropyridin-3-yl)-2-methoxy-6-methyl-9H-purine]	22	potent inhibitory effect against TLR7
COc1nc(C)c2nc(-c3cncc(F)c3)n(Cc3ccc(CC4CCN(C)CC4)cc3F)c2n1 [Example 283]	21	potent inhibitory effect against TLR7
Cc1nc(O)nc2c1nc(-c1cncc(F)c1)n2Cc1ccc(C2CN3CCC2CC3)cc1F (stereo not shown) [Example 389]	2040	–
CCOc1nc(C)c2nc(-c3cncc(F)c3)n(Cc3cnn(CC4COCCN4)c3)c2n1 (stereo not shown) [Example 427]	28	–
CCOc1nc(N)c2nc(-c3cncc(F)c3)n(Cc3ccc(O[C@H]4CN5CCC4CC5)nc3)c2n1 [Example 41]	140	–
COc1nc(C)c2nc(-c3cncnc3)n(Cc3ccc(O[C@@H]4CN5CCC4CC5)cc3F)c2n1 [Example 323, 9-{4-[(3S)-1-azabicyclo[2.2.2]oct-3-yloxy]-2-fluorobenzyl}-2-methoxy-6-methyl-8-(pyrimidin-5-yl)-9H-purine]	70	potent inhibitory effect against TLR7
CCCCOc1nc(C)c2nc(-c3cncc(F)c3)n(Cc3ccccc3)c2n1 [Example 141, 9-Benzyl-2-butoxy-8-(5-fluoropyridin-3-yl)-6-methyl-9H-purine]	3300	–
CCOc1nc(C)c2nc(-c3cncc(F)c3)n(Cc3cnn(CC4CCCNC4)c3)c2n1 (stereo not shown) [Example 269]	19	–
COc1nc(C)c2nc(-c3cncnc3)n(Cc3ccc([C@@H]4CN5CCC4CC5)cc3F)c2n1 [Example 444, 9-{4-[(3R)-1-Azabicyclo[2.2.2]oct-3-yl]-2-fluorobenzyl}-2-methoxy-6-methyl-8-(pyrimidin-5-yl)-9H-purine]	98	–
COc1nc(C)c2nc(-c3cncnc3)n(Cc3ccc(OC4CC5CCC(C4)N5C)cc3F)c2n1 (stereo not drawn) [Example 294, 9-(2-fluoro-4-{[(3-endo)-8-methyl-8-azabicyclo[3.2.1]oct-3-yl]oxy}benzyl)-2-methoxy-6-methyl-8-(pyrimidin-5-yl)-9H-purine]	19	potent inhibitory effect against TLR7
CCOc1nc(C)c2nc(-c3cncc(F)c3)n(Cc3cnn(CCN4CCOCC4)c3)c2n1 [Example 248]	248	–
CCN1CCC(c2ccc(Cn3c(-c4cncc(F)c4)nc4c(C)nc(OC)nc43)c(F)c2)CC1 [Example 284, 9-[4-(1-ethylpiperidin-4-yl)-2-fluorobenzyl]-8-(5-fluoropyridin-3-yl)-2-methoxy-6-methyl-9H-purine]	3	potent inhibitory effect against TLR7
COc1nc(C)c2nc(-c3cncc(F)c3)n(Cc3ccc(CN4C[C@@H]5C[C@H]4CN5C)cc3F)c2n1 [Example 280, 9-(2-fluoro-4-{[(1S,4S)-5-methyl-2,5-diazabicyclo[2.2.1]hept-2-yl]methyl}benzyl)-8-(5-fluoropyridin-3-yl)-2-methoxy-6-methyl-9H-purine]	3	potent inhibitory effect against TLR7
CCOc1nc(C)c2nc(-c3cncc(F)c3)n(Cc3cnn(CC4CCCNC4)c3)c2n1 (stereo not shown) [Example 268]	27	–
CCOc1nc(C)c2nc(-c3cncc(F)c3)n(Cc3cnn(CCCN4CCCC4)c3)c2n1 [Example 247]	85	–
COc1nc(C)c2nc(-c3cncc(F)c3)n(Cc3ccc(OS(C)(=O)=O)cc3F)c2n1 [Example 342]	816	–
CCOc1nc(N)c2nc(-c3cncc(F)c3)n(Cc3ccc(O[C@@H]4CN5CCC4CC5)cc3)c2n1 [Example 66, 9-{4-[(3S)-1-Azabicyclo[2.2.2]oct-3-yloxy]benzyl}-2-ethoxy-8-(5-fluoropyridin-3-yl)-9H-purine-6-amine]	21	potent inhibitory effect against TLR7
COc1nc(C)c2nc(-c3cnccc3C)n(Cc3ccc(C4CN5CCC4CC5)cc3F)c2n1 (stereo not shown) [Example 304, 9-[4-(1-azabicyclo[2.2.2]oct-3-yl)-2-fluorobenzyl]-2-methoxy-6-methyl-8-(4-methylpyridin-3-yl)-9H-purine]	4	potent inhibitory effect against TLR7
COc1nc(C)c2nc(-c3cncc(F)c3)n(Cc3ccc(O[C@H]4C[C@H]5CC[C@@H](C4)N5)cc3F)c2n1 [Example 433]	9	potent inhibitory effect against TLR7
CCOc1nc(C)c2nc(-c3cncc(F)c3)n(Cc3ccc(C4=CN5CCC4CC5)cc3C#N)c2n1 [Example 363]	592	–
COc1nc(C)c2nc(-c3cncc(F)c3)n(Cc3cc(Br)ccc3F)c2n1 [Example 326]	389	–
CCOc1nc(C)c2nc(-c3cncc(F)c3)n(Cc3cnn(CC4CNCCO4)c3)c2n1 (stereo not shown) [Example 425]	93	–
CCOc1nc(C)c2nc(-c3cncc(F)c3)n(Cc3cnn(CC4COCCN4)c3)c2n1 (stereo not shown) [Example 426]	200	–
COc1nc(C)c2nc(-c3cncc(F)c3)n(Cc3ccc([C@@H]4CN5CCC4CC5)cc3)c2n1 [Example 177, 9-{4-[(3R)-1-Azabicyclo[2.2.2]oct-3-yl]benzyl}-8-(5-fluoropyridin-3-yl)-2-methoxy-6-methyl-9H-purine]	10	–

More lines, now with the values ahead:

IC50 [nM]	inhibitory effect against TLR7 in the test for evaluating inhibition of the activation of TLR7	Compound
9300	–	CCCCOc1nc(N)c2nc(-c3cnn(C)c3)n(Cc3ccccc3)c2n1 [Example 8]
49	potent inhibitory effect against TLR7	CCOc1nc(C)c2nc(-c3cncc(F)c3)n(Cc3ccc(C4CCN(C)C4)cc3)c2n1 (stereo not shown) [Example 138]
1300	–	CCCCOc1nc(N)c2nc(-c3cncc(F)c3)n(Cc3ccc(CN4CCOCC4)cc3)c2n1 [Example 83]
26	potent inhibitory effect against TLR7	COc1nc(C)c2nc(-c3cncc(F)c3)n(Cc3ccc(OCC4CN(C)C4)cc3F)c2n1 [Example 286, 9-{2-fluoro-4-[(1-methylazetidin-3-yl)methoxy]benzyl}-8-(5-fluoropyridin-3-yl)-2-methoxy-6-methyl-9H-purine]
170	–	CCN1C[C@@H]2C[C@H]1CN2Cc1ccc(Cn2c(-c3cncc(F)c3)nc3c(N)nc(OC)nc32)cc1 [Example 134]
1000	–	CCCCOc1nc(N)c2nc(-c3cncc(COC)c3)n(Cc3ccccc3)c2n1 [Example 29]
63	potent inhibitory effect against TLR7	CCOc1nc(C)c2nc(-c3cncc(F)c3)n(Cc3ccc(CN4CCCCC4)cc3)c2n1 [Example 264]
7	potent inhibitory effect against TLR7	CCOc1nc(C)c2nc(-c3cncc(F)c3)n(Cc3ccc(CN4C[C@@H]5C[C@H]4CN5CC)cc3)c2n1 [Example 131, 2-ethoxy-9-(4-{[(1S,4S)-5-ethyl-2,5-diazabicyclo[2.2.1]hept-2-yl]methyl}benzyl)-8-(5-fluoropyridin-3-yl)-6-methyl-9H-purine]
540	–	CCOc1nc(N)c2nc(-c3cncc(F)c3)n(Cc3ccc(CN(C)C)cc3)c2n1 [Example 80, 9-{4-[(Dimethylamino)methyl]benzyl}-2-ethoxy-8-(5-fluoropyridin-3-yl)-9H-purine-6-amine]
5500	–	CCCCOc1nc(N)c2nc(-c3cccnc3)n(Cc3ccccc3)c2n1 [Example 2]
290	–	CCOc1nc(N)c2nc(-c3cncc(F)c3)n(Cc3ccc(CN4CCN(C)C(=O)C4)cc3)c2n1 [Example 93]
3410	–	COc1ccc(Cn2c(-c3cncc(F)c3)nc3c(C)nc(OC)nc32)c(F)c1 [Example 405, 9-(2-fluoro-4-methoxybenzyl)-8-(5-fluoropyridin-3-yl)-2-methoxy-6-methyl-9H-purine]
220	–	CCOc1nc(N)c2nc(-c3cncc(F)c3)n(Cc3ccc(CN4C[C@@H]5C[C@H]4CN5)cc3)c2n1 [Example 124]
1400	–	COCCOc1nc(N)c2nc(-c3cncc(F)c3)n(Cc3cccc(CN(C)C)c3)c2n1 [Example 89]
820	–	CCOc1nc(N)c2nc(-c3cncc(C)c3)n(Cc3ccc(CN(C)C)cc3)c2n1 [Example 33]
100	–	COCCOc1nc(C)c2nc(-c3cncc(F)c3)n(Cc3ccc(CN4CCN(C)CC4)cc3)c2n1 [Example 115]
800	–	CCCCOc1nc(N)c2nc(-c3cncc(OC)c3)n(Cc3ccccc3)c2n1 [Example 10]

Reference: US10703755B2, “Substituted purine derivative” (SUMITOMO DAINIPPON PHARMA CO., LTD., priority 2016, dated 2020)
